{
  "source": "ChEMBL document CHEMBL3272028",
  "about": "“Some substituted naphthazarins as potential anticancer agents” (1976)",
  "key": {"[1]": {"test_system": "L1210", "experiment": "Antitumor activity against mouse L1210 cells allografted in mouse", "format": "functional, cell-based"}, "[2]": {"test_system": "P388", "experiment": "Antitumor activity against mouse P388 cells allografted in mouse at 50 mg/kg relative to control", "format": "functional"}, "[3]": {"test_system": "P388", "experiment": "Antitumor activity against mouse P388 cells allografted in mouse at 400 mg/kg relative to control", "format": "functional"}, "[4]": {"test_system": "P388", "experiment": "Antitumor activity against mouse P388 cells allografted in mouse", "format": "functional, cell-based"}, "[5]": {"experiment": "Growth inhibition of human 9KB cells at 1.8 ug/ml relative to control", "format": "functional", "conditions": "read-out: GI"}},
  "note": "Calls of active or inactive are those of the source. The rule behind the calls is not given here.",
  "data": [
    {"molecule": "CC1=C(C)C(=O)c2c(OC(=O)c3ccccc3)ccc(OC(=O)c3ccccc3)c2C1=O", "values": [
      {"measurement": "Activity", "setting": "[1]", "result": "inactive"},
      {"measurement": "T/C", "setting": "[2]", "result": 128}
    ]},
    {"molecule": "CC(=O)Oc1ccc(OC(C)=O)c2c1CC(C)=C(C)C2", "values": [
      {"measurement": "Activity", "setting": "[1]", "result": "inactive"},
      {"measurement": "T/C", "setting": "[3]", "result": 126}
    ]},
    {"molecule": "CC(=O)Oc1ccc(OC(C)=O)c2c1C(=O)C=CC2=O", "values": [
      {"measurement": "Activity", "setting": "[4]", "result": "inactive"},
      {"measurement": "Activity", "setting": "[1]", "result": "inactive"},
      {"measurement": "inhibition of growth at 1.8 µg/mL", "setting": "[5]", "result": 50, "unit": "%"}
    ]}
  ]
}
